Laboratory results as given in patent US20240226020A1 (AMGEN INC., priority 2021, published 2024).
Entries after “also recorded” stand apart in the source; their conditions may differ.

Experiments:
[1] = Water dispersion study: pharmacokinetics of 8×120 mg tablets versus tablets dispersed in water; type: in vivo, healthy subjects; conditions: plasma; for AUC(0-inf): human, oral, 960 mg, Geometric mean sotorasib AUCinf
Procedure: Doses were administered orally on Days 1 and 4 during the mornings after an overnight fast of at least 10 hours. A total of 13 subjects entered the study (7 subjects receiving treatment in the sequences of Treatment A followed by Treatment B; and 6 subjects receiving treatment in the sequences of Treatment B followed by Treatment A). Data for all subjects was included in the pharmacokinetic (PK) and safety analyses. […] PK parameters including AUClast, AUCinf, and Cmax were estimated and compared between Treatment A and Treatment B. The natural log-transformed PK parameters were analyzed using a mixed model. The model included treat, period, and sequence as fixed effect and subject nested within a sequence as a random effect. […] Additionally, the pooled estimate (across all treatments) of the within-subject coefficient of variation was calculated, and residual plots were produced to assess the adequacy of the model(s) fitted.

[2] = Water dispersion study: safety and tolerability; type: in vivo; conditions: healthy subjects
Procedure: Doses were administered orally on Days 1 and 4 during the mornings after an overnight fast of at least 10 hours. A total of 13 subjects entered the study (7 subjects receiving treatment in the sequences of Treatment A followed by Treatment B; and 6 subjects receiving treatment in the sequences of Treatment B followed by Treatment A). Data for all subjects was included in the pharmacokinetic (PK) and safety analyses. […] All events resolved by the end of the study.

[3] = Compressibility (tablet solid fraction as a function of compaction pressure); type: physicochemical
Procedure: (§1) After compression, tablets were measured for their ejected weight, thickness and diameter. Tablets were then stored for minimally 48 hours to allow for complete viscoelastic relaxation. The recovered dimensions were measured prior to diametrical compression testing performed using the HB compaction simulator operating at a constant loading rate of 5 mm/min. The force required to cause diametrical failure was recorded and used to compute radial tensile strength values.
Compressibility: The ability of a powder bed to be reduced in volume due to the application of an applied stress gives an indication of powder compressibility. This behavior is described in terms of tablet solid fraction as a function of compaction pressure (see Table 38). Interpretation of the data considers the change in solid fraction between two pressure conditions. The increased difference in SF at a high pressure and a low pressure is indicative of increased compressibility of the blend. […] Therefore, a 3:1 plastic to brittle diluent ratio, e.g., a 3:1 Avicel PH102 to lactose ratio, is preferred.

[4] = Compactibility and tabletability (radial tensile strength, compression pressure); type: physicochemical
Procedure: as §1
Compactibility and Tabletability: The ability of a powder bed to cohere into or to form a compact gives an indication of powder compactibility. This behavior is described as a plot of tablet radial tensile strength (RTS) as a function of tablet solid fraction (SF) (FIG. 12A). For understanding fundamental material behavior, it is advantageous to compare materials at similar levels of solid fraction. […] The compactibility of all three placebo blends can be classified as “low” because each blend has been previously dry granulated. Tabletability is another relevant parameter which is useful in identifying the pressure needed to achieve a specific tablet hardness or tensile strength. This behavior is described as a plot of tablet radial tensile strength (RTS) as a function of compaction pressure (FIG. 12B).

[5] = test system: extracellular signal-regulated kinase (ERK); conditions: preclinical studies; cited from earlier work

C=CC(=O)N1CCN(c2nc(=O)n(-c3c(C)ccnc3C(C)C)c3nc(-c4c(O)cccc4F)c(F)cc23)[C@@H](C)C1 (atropisomer, axis not shown; (M)) [Sotorasib, 6-fluoro-7-(2-fluoro-6-hydroxyphenyl)-(1M)-1-[4-methyl-2-(propan-2-yl)pyridin-3-yl]-4-[(2S)-2-methyl-4-(prop-2-enoyl)piperazin-1-yl]pyrido[2,3-d]pyrimidin-2(1H)-one]
median sotorasib tmax ([1]; 8×120 mg tablets (Formulation #8) dispersed in water (Treatment B), single oral dose, fasted): 1 h
AUC(0-inf) ([1]; administered as tablets (Treatment A)): 25300 ng·h/mL
AUC(0-inf) ([1]; administered as water dispersion (Treatment B)): 26400 ng·h/mL
Safety and tolerability ([2]; single doses of 960 mg as tablets dispersed in water and as tablets): safe and well tolerated; also recorded: safe and well-tolerated
Clinical laboratory evaluations, vital signs, 12-lead ECGs ([2]; single doses of 960 mg): no clinically significant findings
Serious adverse events ([2]; single doses of 960 mg): no serious adverse events
Treatment-emergent adverse events ([2]; single doses of 960 mg, all mild, related to sotorasib, resolved): Three treatment-emergent adverse events of constipation, nausea and vomiting
applied pressure required to produce a tablet with an out of die solid fraction of 0.85 [3]: approximately 145 MPa
Assessment of compressibility and compactibility [4]: high levels of compressibility combined with very low levels of compactibility
solid fraction at a theoretical strength value of 2 MPa [4]: 0.85
RTS (MPa) @ 0.85 SF ([4]; 0.85 SF): 1.59 MPa
RTS (MPa) @ 150 MPa ([4]; 150 MPa): 1.62 MPa
CP (MPa) @ RTS = 2 MPa ([4]; RTS = 2 MPa): 149.00 MPa
SF @ RTS = 2 MPa ([4]; RTS = 2 MPa): 0.85
radial tensile strength ([4]; compressed to a peak pressure of 150 MPa): 1.62 MPa
radial tensile strength ([4]; compressed to an out of die solid fraction of 0.85): 1.59 MPa
phosphorylation of extracellular signal-regulated kinase (ERK) [5]: inhibited nearly all detectable phosphorylation
